Results as given in article PMC7544826 (Communications Biology, 2020).
“Also recorded” adds a separate entry of the source.

How the values were obtained:
[1] = biological target: T1, Notum (Homo sapiens, UniProt Q6P988, C330S); assay: Thermal shift assay (SYPRO Orange) of Notum; settings: compound 500 µM; for Thermoflour melting curve fluorescence of Notum: Fig 2c
T1 sequence (Q6P988 81-451 C330S): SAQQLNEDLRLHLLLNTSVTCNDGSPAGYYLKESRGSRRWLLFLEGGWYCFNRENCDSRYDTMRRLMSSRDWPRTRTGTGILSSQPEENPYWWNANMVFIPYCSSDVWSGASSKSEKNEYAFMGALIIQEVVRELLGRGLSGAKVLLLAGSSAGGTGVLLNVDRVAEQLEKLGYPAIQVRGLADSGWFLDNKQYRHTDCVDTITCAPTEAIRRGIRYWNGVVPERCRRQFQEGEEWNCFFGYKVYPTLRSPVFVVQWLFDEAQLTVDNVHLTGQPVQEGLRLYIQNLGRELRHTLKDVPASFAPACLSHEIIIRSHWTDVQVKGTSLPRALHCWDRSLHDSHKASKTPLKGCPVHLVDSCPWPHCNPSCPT
Protocol: Reference wells, i.e. solutions without compounds were used to compare the melting temperature (Tm). The experiments were performed in triplicate.

[2] = biological target: T1, Notum; assay: Notum activity assay with OPTS as substrate; format: biochemical; design: The human Notum enzyme core comprising amino acids S81–T451 with a C330S mutation; made in house; dialyzed conditioned medium used without purification; settings: result in words
Protocol: OPTS is a common lipase substrate with an octanoyl lipid linked to a fluorescent moiety. It is not a natural Notum substrate; however, it can be used to quantify the enzymatic activity of purified Notum protein[23],[25],[28]. […] The fluorescent lipase substrate OPTS was dissolved in water at a concentration of 20 µM. […] The inhibition curves were fitted with a one-site model with GraphPad Prism 8 software.

[3] = biological target: T1, Notum; assay: SPR equilibrium binding to biotinylated Notum on streptavidin chip; design: The human Notum enzyme core comprising amino acids S81–T451 with a C330S mutation; made in house; dialyzed conditioned medium used without purification; settings: for SPR Response: Fig 2b
Protocol: The human Notum core sequence was cloned in a pHL-Avi3 vector[49] and co-transfected with the pDisplay_BirA-ER plasmid[50] into HEK293T cells with the media supplemented with 20 µM biotin. This procedure allows in vivo biotinylation to occur, and the dialyzed conditioned medium was directly used for SA sensor chip immobilization without protein purification. […] Approximately 2500 resonance units (RU) of the biotinylated Notum was coupled onto the chip. […] The response was plotted versus the concentration of the analytes and fitted by nonlinear regression to a one-site saturation binding model (GraphPad Prism 8).

## Cn1c(=O)c2[nH]cnc2n(C)c1=O [theophylline, 1,3-dimethylxanthine]
[1]; Temperature 24.5
  Thermoflour melting curve fluorescence of Notum: 897.128
[1]; Temperature 25.5
  Thermoflour melting curve fluorescence of Notum: 765.384
[1]; Temperature 26.5
  Thermoflour melting curve fluorescence of Notum: 637.209
[1]; Temperature 27.5
  Thermoflour melting curve fluorescence of Notum: 518.408
[1]; Temperature 28.5
  Thermoflour melting curve fluorescence of Notum: 414.177
[1]; Temperature 29.5
  Thermoflour melting curve fluorescence of Notum: 331.765
[1]; Temperature 30.5
  Thermoflour melting curve fluorescence of Notum: 250.774
[1]; Temperature 31.5
  Thermoflour melting curve fluorescence of Notum: 158.442
[1]; Temperature 32.5
  Thermoflour melting curve fluorescence of Notum: 68.441
[1]; Temperature 33.5
  Thermoflour melting curve fluorescence of Notum: -19.5239
[1]; Temperature 34.5
  Thermoflour melting curve fluorescence of Notum: -111.255
[1]; Temperature 35.5
  Thermoflour melting curve fluorescence of Notum: -209.389
[1]; Temperature 36.5
  Thermoflour melting curve fluorescence of Notum: -312.731
[1]; Temperature 37.5
  Thermoflour melting curve fluorescence of Notum: -413.402
[1]; Temperature 38.5
  Thermoflour melting curve fluorescence of Notum: -500.183
[1]; Temperature 39.5
  Thermoflour melting curve fluorescence of Notum: -562.853
[1]; Temperature 40.5
  Thermoflour melting curve fluorescence of Notum: -610.744
[1]; Temperature 41.5
  Thermoflour melting curve fluorescence of Notum: -645.08
[1]; Temperature 42.5
  Thermoflour melting curve fluorescence of Notum: -650.416
[1]; Temperature 43.5
  Thermoflour melting curve fluorescence of Notum: -632.566
[1]; Temperature 44.5
  Thermoflour melting curve fluorescence of Notum: -596.655
[1]; Temperature 45.5
  Thermoflour melting curve fluorescence of Notum: -543.168
[1]; Temperature 46.5
  Thermoflour melting curve fluorescence of Notum: -459.896
[1]; Temperature 47.5
  Thermoflour melting curve fluorescence of Notum: -343.992
[1]; Temperature 48.5
  Thermoflour melting curve fluorescence of Notum: -208.285
[1]; Temperature 49.5
  Thermoflour melting curve fluorescence of Notum: -58.8655
[1]; Temperature 50.5
  Thermoflour melting curve fluorescence of Notum: 106.458
[1]; Temperature 51.5
  Thermoflour melting curve fluorescence of Notum: 280.009
[1]; Temperature 52.5
  Thermoflour melting curve fluorescence of Notum: 465.116
[1]; Temperature 53.5
  Thermoflour melting curve fluorescence of Notum: 688.929
[1]; Temperature 54.5
  Thermoflour melting curve fluorescence of Notum: 944.753
[1]; Temperature 55.5
  Thermoflour melting curve fluorescence of Notum: 1249.14
[1]; Temperature 56.5
  Thermoflour melting curve fluorescence of Notum: 1627.12
[1]; Temperature 57.5
  Thermoflour melting curve fluorescence of Notum: 2089.03
[1]; Temperature 58.5
  Thermoflour melting curve fluorescence of Notum: 2740.86
[1]; Temperature 59.5
  Thermoflour melting curve fluorescence of Notum: 3654.17
[1]; Temperature 60.5
  Thermoflour melting curve fluorescence of Notum: 4930.23
[1]; Temperature 61.5
  Thermoflour melting curve fluorescence of Notum: 6643.29
[1]; Temperature 62.5
  Thermoflour melting curve fluorescence of Notum: 8772.9
[1]; Temperature 63.5
  Thermoflour melting curve fluorescence of Notum: 11088.9
[1]; Temperature 64.5
  Thermoflour melting curve fluorescence of Notum: 13331.1
[1]; Temperature 65.5
  Thermoflour melting curve fluorescence of Notum: 15330
[1]; Temperature 66.5
  Thermoflour melting curve fluorescence of Notum: 16941.4
[1]; Temperature 67.5
  Thermoflour melting curve fluorescence of Notum: 18219.9
[1]; Temperature 68.5
  Thermoflour melting curve fluorescence of Notum: 19263.9
[1]; Temperature 69.5
  Thermoflour melting curve fluorescence of Notum: 20098.6
[1]; Temperature 70.5
  Thermoflour melting curve fluorescence of Notum: 20739.3
[1]; Temperature 71.5
  Thermoflour melting curve fluorescence of Notum: 21242.8
[1]; Temperature 72.5
  Thermoflour melting curve fluorescence of Notum: 21635.7
[1]; Temperature 73.5
  Thermoflour melting curve fluorescence of Notum: 21967.5
[1]; Temperature 74.5
  Thermoflour melting curve fluorescence of Notum: 22276.2
[1]; Temperature 75.5
  Thermoflour melting curve fluorescence of Notum: 22539.4
[1]; Temperature 76.5
  Thermoflour melting curve fluorescence of Notum: 22758.8
[1]; Temperature 77.5
  Thermoflour melting curve fluorescence of Notum: 22973.7
[1]; Temperature 78.5
  Thermoflour melting curve fluorescence of Notum: 23167.2
[1]; Temperature 79.5
  Thermoflour melting curve fluorescence of Notum: 23367.9
[1]; Temperature 80.5
  Thermoflour melting curve fluorescence of Notum: 23544.1
[1]; Temperature 81.5
  Thermoflour melting curve fluorescence of Notum: 23667.9
[1]; Temperature 82.5
  Thermoflour melting curve fluorescence of Notum: 23791
[1]; Temperature 83.5
  Thermoflour melting curve fluorescence of Notum: 23926.1
[1]; Temperature 84.5
  Thermoflour melting curve fluorescence of Notum: 24091.4
[1]; Temperature 85.5
  Thermoflour melting curve fluorescence of Notum: 24243.5
[1]; Temperature 86.5
  Thermoflour melting curve fluorescence of Notum: 24338.2
[1]; Temperature 87.5
  Thermoflour melting curve fluorescence of Notum: 24414.9
[1]; Temperature 88.5
  Thermoflour melting curve fluorescence of Notum: 24481.1
[1]; Temperature 89.5
  Thermoflour melting curve fluorescence of Notum: 24523
[1]; Temperature 90.5
  Thermoflour melting curve fluorescence of Notum: 24559.4
[1]; Temperature 91.5
  Thermoflour melting curve fluorescence of Notum: 24580.6
[1]; Temperature 92.5
  Thermoflour melting curve fluorescence of Notum: 24587.9
[1]; Temperature 93.5
  Thermoflour melting curve fluorescence of Notum: 24608.3
[1]; Temperature 94.5
  Thermoflour melting curve fluorescence of Notum: 24615
[1]; Temperature 95.5
  Thermoflour melting curve fluorescence of Notum: 24596.6
[1]; Temperature 96.5
  Thermoflour melting curve fluorescence of Notum: 24576.1
[1]; Temperature 97.5
  Thermoflour melting curve fluorescence of Notum: 24555
[1]
  Effect on Tm of Notum: very weak binding to Notum
[1]; versus Notum without compounds
  ∆Tm of Notum: about 1 °C
[1]; Notum without compounds Tm 63.6 °C
  Melting temperature (Tm) of Notum: 64.5 °C
[2]
  Notum inhibitory effect in OPTS enzyme assay: not sufficient to inhibit Notum enzyme activity; also recorded: could not detect obvious Notum inhibitory effects
[3]; theophylline conc. 8.138e-6 (unit not given)
  SPR Response: 6
[3]; theophylline conc. 1.628e-5 (unit not given)
  SPR Response: 5.14
[3]; theophylline conc. 3.255e-5 (unit not given)
  SPR Response: 5.26
[3]; theophylline conc. 6.51e-5 (unit not given)
  SPR Response: 4.57
[3]; theophylline conc. 0.0001302 (unit not given)
  SPR Response: 4.5
[3]; theophylline conc. 0.0002604 (unit not given)
  SPR Response: 4.84
[3]; theophylline conc. 0.0005208 (unit not given)
  SPR Response: 5.18
[3]; theophylline conc. 0.001042 (unit not given)
  SPR Response: 6.64
[3]; theophylline conc. 0.002083 (unit not given)
  SPR Response: 9.15
[3]; theophylline conc. 0.004167 (unit not given)
  SPR Response: 13.17
[3]; theophylline conc. 0.008333 (unit not given)
  SPR Response: 19.59
[3]; theophylline conc. 0.01667 (unit not given)
  SPR Response: 29.6
[3]; result in words
  Binding to Notum (SPR response): weak binding; also recorded: very weak binding
